The values that follow come from PubChem BioAssay (NCI).

Among the test systems are RPMI-8226 leukemia; A498 renal; OVCAR-5 ovarian; MOLT-4 leukemia; M14 melanoma; 786-0 renal; SF-295 CNS; HOP-62 NSCLC; SK-OV-3 ovarian; MALME-3M melanoma.
Test in all cases: inhibition of tumour cell growth, NCI panel, 48 h

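Tested at 5 concentrations; 48 h exposure; 96-well plates; endpoints linearly interpolated, else capped at highest concentration. At the GI50, growth is halved. At the TGI there is no net growth.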

For `FC(F)(F)c1ccc(-c2ncc(-c3ccc(C(F)(F)F)cc3)c(NCc3cc(C(F)(F)F)cc(C(F)(F)F)c3)n2)cc1`, the GI50 in the experiment with RPMI-8226 leukemia is 4.24 µM; in the experiment on A498 renal, 2.31 µM; in the experiment on OVCAR-5 ovarian, 6.02 µM; with MOLT-4 leukemia, 4.35 µM; in the experiment on M14 melanoma it was 4.38 µM; with 786-0 renal it was 3.87 µM. Moreover, the GI50 with SF-295 CNS was 2.94 µM; in the experiment on HOP-62 NSCLC, 5.16 µM; with SK-OV-3 ovarian, 7.03 µM; with MALME-3M melanoma it was 6.44 µM. The TGI is 35.3 µM in the experiment with RPMI-8226 leukemia; 8.75 µM with A498 renal; more than 100 µM with OVCAR-5 ovarian; 71.8 µM in the experiment with MOLT-4 leukemia; more than 100 µM with M14 melanoma; more than 100 µM in the experiment with 786-0 renal. The TGI with SF-295 CNS is 28.3 µM; in the experiment with HOP-62 NSCLC, more than 100 µM; in the experiment with SK-OV-3 ovarian, 55.2 µM; in the experiment on MALME-3M melanoma, 46.3 µM.

As to `COc1cc(/C=C/C(=O)c2c(C)nc3ccccc3c2C)ccc1OCCCCOc1cc2c(cc1OC)C(=O)N1CCC[C@H]1C=N2`, the GI50 in the experiment on RPMI-8226 leukemia is 0.209 µM; in the experiment on A498 renal, 0.286 µM; in the experiment with OVCAR-5 ovarian it was 0.528 µM; in the experiment on MOLT-4 leukemia, 0.325 µM; with M14 melanoma, 1.16 µM; with 786-0 renal it was 0.602 µM. In addition, the GI50 in the experiment with SF-295 CNS was 0.416 µM; with HOP-62 NSCLC, 1.71 µM; in the experiment on SK-OV-3 ovarian it was 1.18 µM; in the experiment with MALME-3M melanoma, 0.554 µM. For the same compound, the TGI with RPMI-8226 leukemia was 0.585 µM; with A498 renal, 0.779 µM; in the experiment with OVCAR-5 ovarian, 3.35 µM; with MOLT-4 leukemia it was 1.12 µM; in the experiment on M14 melanoma, more than 100 µM; in the experiment with 786-0 renal it was 1.86 µM. Also, the TGI with SF-295 CNS amounted to 1.56 µM; in the experiment on HOP-62 NSCLC, 6.93 µM; with SK-OV-3 ovarian, 3.08 µM; with MALME-3M melanoma, 2.37 µM.

As for `FC(F)(F)c1cc(-c2ncn(/C=C\c3nnco3)n2)cc(C(F)(F)F)c1`, the GI50 in the experiment with RPMI-8226 leukemia was 0.0336 µM; in the experiment with A498 renal, less than 0.0128 µM; in the experiment on OVCAR-5 ovarian it was 0.267 µM; in the experiment on MOLT-4 leukemia it was 0.0284 µM; in the experiment with M14 melanoma, 0.372 µM; in the experiment on 786-0 renal, 0.0869 µM. Moreover, the GI50 in the experiment on SF-295 CNS was 0.0634 µM; in the experiment on HOP-62 NSCLC, 0.282 µM; with SK-OV-3 ovarian, 0.223 µM; with MALME-3M melanoma, 0.102 µM. Moreover, the TGI in the experiment with RPMI-8226 leukemia was 15.6 µM; in the experiment with A498 renal, 0.0639 µM; with OVCAR-5 ovarian, more than 63.3 µM; with MOLT-4 leukemia, 0.938 µM; in the experiment on M14 melanoma it was more than 34.6 µM; in the experiment on 786-0 renal, more than 32.3 µM. Moreover, the TGI in the experiment on SF-295 CNS is more than 43.3 µM; in the experiment with HOP-62 NSCLC, 28.3 µM; in the experiment on SK-OV-3 ovarian, more than 67.3 µM; in the experiment with MALME-3M melanoma it was 0.734 µM.

`NC(=S)N/N=C(\CCC(=O)Nc1ccccc1[N+](=O)[O-])CC(=O)c1ccco1`: the TGI in the experiment with RPMI-8226 leukemia, in the experiment with A498 renal, in the experiment on OVCAR-5 ovarian, with MOLT-4 leukemia, in the experiment with M14 melanoma and with 786-0 renal was more than 100 µM in each case. Besides, the TGI with SF-295 CNS, in the experiment on HOP-62 NSCLC, in the experiment on SK-OV-3 ovarian and with MALME-3M melanoma was more than 100 µM each time.

Take `O=C1C(=C([O-])c2ccccc2)C(=O)c2ccccc21.O=C1C(=C([O-])c2ccccc2)C(=O)c2ccccc21.[Co+2]`: the GI50 in the experiment with RPMI-8226 leukemia, in the experiment with A498 renal, in the experiment on OVCAR-5 ovarian, with MOLT-4 leukemia, in the experiment on M14 melanoma and in the experiment with 786-0 renal was more than 100 µM throughout. The GI50 was 59.6 µM in the experiment with SF-295 CNS, more than 100 µM in the experiment with HOP-62 NSCLC, more than 100 µM in the experiment with SK-OV-3 ovarian and 40.1 µM in the experiment with MALME-3M melanoma. Also, the TGI with RPMI-8226 leukemia, in the experiment on A498 renal, with OVCAR-5 ovarian, with MOLT-4 leukemia, in the experiment on M14 melanoma and in the experiment with 786-0 renal was more than 100 µM in each case. The TGI in the experiment on SF-295 CNS, in the experiment with HOP-62 NSCLC, in the experiment with SK-OV-3 ovarian and with MALME-3M melanoma was more than 100 µM throughout.

Consider `N#CC(/C(=N/NC(N)=S)C(=O)Nc1cccc(Cl)c1)c1ccccc1` (stereo not given), for which the TGI in the experiment with RPMI-8226 leukemia, with A498 renal, with OVCAR-5 ovarian, in the experiment on MOLT-4 leukemia, in the experiment on M14 melanoma and in the experiment with 786-0 renal was more than 100 µM throughout. For the same compound, the TGI in the experiment on SF-295 CNS, with HOP-62 NSCLC, in the experiment with SK-OV-3 ovarian and in the experiment on MALME-3M melanoma was more than 100 µM each time.

Consider `CCCCCCCC(CC(=O)NC(CO)C(=O)NC(CO)CC(C)C)OC(=O)CC(CCCCCCC)OC(=O)CC(CCCCCCC)OC1OC(C)C(O)C(OC2OC(C)C(O)C(O)C2O)C1O` (stereo not given), for which the TGI turned out to be 8.96 µM in the experiment on RPMI-8226 leukemia; 35 µM in the experiment with A498 renal; 26 µM with OVCAR-5 ovarian; 28.2 µM in the experiment with MOLT-4 leukemia; 17.5 µM in the experiment with M14 melanoma; 35 µM with 786-0 renal. Besides, the TGI in the experiment on SF-295 CNS turned out to be 27.1 µM; in the experiment on HOP-62 NSCLC, 35 µM; in the experiment with SK-OV-3 ovarian, 31.5 µM; in the experiment with MALME-3M melanoma it was 24 µM.

In the case of `O=C(c1cccs1)c1nc2cc(Cl)ccc2[n+]([O-])c1C(F)(F)F`, the GI50 is 64 µM in the experiment with RPMI-8226 leukemia; 92 µM in the experiment on A498 renal; more than 100 µM with OVCAR-5 ovarian; 70.1 µM in the experiment on MOLT-4 leukemia; more than 100 µM in the experiment with M14 melanoma; more than 100 µM in the experiment on 786-0 renal. Moreover, the GI50 with SF-295 CNS is 91.3 µM; in the experiment with HOP-62 NSCLC, more than 100 µM; in the experiment on SK-OV-3 ovarian, more than 100 µM; with MALME-3M melanoma it was 99 µM. In addition, the TGI in the experiment with RPMI-8226 leukemia, in the experiment on A498 renal, in the experiment on OVCAR-5 ovarian, with MOLT-4 leukemia, in the experiment with M14 melanoma and in the experiment on 786-0 renal was more than 100 µM each time. The TGI in the experiment on SF-295 CNS, in the experiment with HOP-62 NSCLC, in the experiment on SK-OV-3 ovarian and with MALME-3M melanoma was more than 100 µM in each case.
